Read-outs that look alike come from different tables or passages of the source.
Legend:
[1] = molecular target: T1, human RNaseH1 (Homo sapiens, UniProt O60930); assay: Oligonucleotide-directed RNA cleavage assay, human RNaseH1; format: biochemical; conditions: for IC50: Table 1, quantitative values
T1 construct: made in house; host or cells: E. coli
T1 sequence (O60930 1-286): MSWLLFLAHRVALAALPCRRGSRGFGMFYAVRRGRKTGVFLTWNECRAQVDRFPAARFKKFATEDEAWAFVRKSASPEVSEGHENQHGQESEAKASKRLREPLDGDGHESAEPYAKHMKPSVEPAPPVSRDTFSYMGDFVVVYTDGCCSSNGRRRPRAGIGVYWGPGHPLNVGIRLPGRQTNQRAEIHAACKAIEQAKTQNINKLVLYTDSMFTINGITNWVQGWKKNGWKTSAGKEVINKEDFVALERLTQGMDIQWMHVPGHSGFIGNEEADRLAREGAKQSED
Source text: RNaseH expression and purification.
Oligonucleotide-directed RNA cleavage assay.

[2] = system: HBV replication; assay: HBV replication inhibition assay in HepDES19 cells (strand-preferential q-PCR); format: cell-based, Hepatitis B virus; conditions: for EC50: Hepatitis B virus
Method: HBV replication assay. […] Cells were seeded into 6-well plates and incubated in DMEM/F12, 10% fetal bovine serum (FBS), 1% penicillin/streptomycin (P/S) with 1 μg/mL tetracycline. Tetracycline was withdrawn after 24 hours. The test compound was applied to duplicate wells 48 hours later in medium containing a final DMSO concentration of 1%, and medium containing the compound was refreshed daily for the following two days. Cells were harvested and non-encapsidated nucleic acids were digested with micrococcal nuclease (New England Biolabs). HBV DNA was purified from capsids using QIAamp Cador Pathogen Mini Kit (Qiagen) with proteinase K incubation overnight at 37° C. TaqMan PCR was performed for 40 cycles at an annealing temperature of 60° C.
Thirty-nine HID, HPD, flutimide, and related POH compounds (Structures shown in FIG. 3) were screened for their ability to inhibit HBV replication in HepDES19 cells. […] Inhibition was calculated as the amount of plus-polarity DNA relative to the DMSO treated controls.
Briefly, HepDES19 were seeded in 12-well plates at 2×10^5 cells per well in the absence of tetracycline. Test compound was applied to cells 48 hours after removal of tetracycline. […] HBV DNA was purified from capsids using a QIAamp pathogen minikit with proteinase K digestion extended to overnight at 37° C. TaqMan PCR was performed for 40 cycles with an annealing temperature of 60° C.

[3] = MTT cytotoxicity assay; format: cell-based; conditions: human; Table 2, HepDES19 cells
Method: MTT cytotoxicity assays. 1.0×10^4 HepDES19 cells per well were seeded in 96-well plates and incubated in DMEM with 10% FBS plus 1% P/S, 1% non-essential amino acids, and 1% glutamine. Compounds were diluted in medium to the indicated concentrations plus 1% DMSO and added to cells 24 hours after plating, with each concentration tested in triplicate. Medium containing the compound was refreshed daily for the next two days. Thiazolyl blue tetrazolium bromide (MTT, Sigma-Aldrich) was added to 0.25 mg/mL, the cultures were incubated for 60 minutes, metabolites were solubilized in acidic isopropanol, and absorbance was read at 570 nm.

[4] = system: HSV-1; assay: HSV-1 replication inhibition assay in Vero cells; format: cell-based, herpes simplex virus 1; conditions: Human alphaherpesvirus 1, 24 h; 5 μM, Vero cells; read-out: HSV-1 suppression (log10 at 5 μM), class symbol
Method: Thirty-seven compounds were counter-screened for efficacy against HSV-1 to evaluate specificity of the inhibitors and to help determine if the efficacy against HBV replication may be due to an unsuspected indirect effect on the cells. Vero cells infected with HSV-1 at an MOI of 0.1 were treated with 5 μM of compound for 24 hours. Inhibition was calculated as log 10 suppression of plaque forming units compared with DMSO vehicle control.
Vero cells were maintained DMEM supplemented with 3% newborn calf serum, 3% bovine growth serum, 2 mM L-glutamine, and P/S. Test compounds were applied to the cells in the presence of 0.05% DMSO. The herpes simplex virus 1 (HSV-1) strain used for screening was a de-identified clinical isolate from the Saint Louis University Hospital passaged once in culture.
Compounds and virus were diluted in phosphate buffered saline (PBS) containing 2% newborn calf serum and 2 mM L-glutamine so that the final concentration of compound was 5 μM. The cells were incubated at 37° C. for 1 hour with the virus containing inoculum, then the inoculum was removed and the wells were washed once in PBS. Compound diluted to 5 μM in supplemented DMEM was added and cells were incubated at 37° C. for an additional 23 hours. The plates were then microscopically inspected for cytopathic effect (CPE) or toxicity and then frozen at −80° C. Virus titers for wells with limited CPE compared to DMSO vehicle-treated controls were then determined by plaque assay on Vero cells. Each experiment was repeated at least once.

[5] = molecular target: T2, HBV RNaseH (Hepatitis B virus genotype D subtype ayw, UniProt P03156); conditions: for Inhibition of HBV RNaseH, Oligonucleotide directed cleavage assay: Table 3, compounds at 100, 60 and 20 μM, compounds 1-91 and 138-140 previously reported (Cai et al., 2014)
Method: RNaseH expression and purification. […] The enriched extracts were dialyzed into 50 mM HEPES pH 7.3, 300 mM NaCl, 20% glycerol, and 5 mM DTT and stored in liquid nitrogen.
Oligonucleotide-directed RNA cleavage assay. […] This mixture was incubated with test compounds in 50 mM Tris pH 8.0, 190 mM NaCl, 5 mM MgCl2, 3.5 mM DTT, 0.05% NP40, 6% glycerol, and 1% DMSO at 42° C. for 90 minutes. Cleavage products were resolved by denaturing polyacrylamide gel electrophoresis, detected by autoradiography, and quantified using ImageJ. Non-specific background values were determined from the incorrect oligonucleotide negative control lane and subtracted from all experimental values. IC50 values were then calculated with GraphPad Prism using three-parameter log(inhibitor) vs. response non-linear curve fitting with the curve minimum set to zero to reflect background subtraction.
The HBV RNaseH inhibition activity of the 16 previously untested compounds was examined using an oligonucleotide-directed cleavage assay. Compounds were incubated with the HBV RNaseH, a ^32P-labeled RNA substrate plus a complementary DNA oligonucleotide and compounds at 100, 60, and 20 μM and the amount of the RNA cleavage products was measured following resolution on an acrylamide gel.
Briefly, a ^32P-labeled RNA was combined with a DNA oligonucleotide and the RNA:DNA substrate was incubated in the presence of the RNaseH and test compounds in 50 mM tris pH 8.0, 190 mM NaCl, 5 mM MgCl2, 3.5 mM DTT, 0.05% NP40, 6% glycerol, and 1% DMSO at 42° C. for 90 minutes. The products were resolved by gel electrophoresis and detected by audioradioagraphy.

[6] = molecular target: T2, HBV RNaseH; assay: Molecular beacon RNaseH assay; conditions: for inhibition in the molecular beacon assay: 2.1 μg purified HBV RNaseH; for Inhibition of HBV RNaseH, Molecular Beacon cleavage assay: Table 3, 0 to 500 μM
[7] = MTS cytotoxicity assay (CellTiter 96); conditions: human
Method: (§1) HepDES19 cells were seeded at 1×10^4 cells per well in a 96 well plate in the absence of tetracycline. The test compounds were applied in triplicate to the cells 48 hours later and the cells were incubated for 72 hours. Cell viability was measured using the CellTiter 96 Aqueous Non-Radioactive Cell Proliferation Assay (Promega). [3-(4,5-dimethylthiazol-2-yl)-5-(3-carboxymethoxyphenyl)-2-(4-sulfophenyl)-2H-tetrazolium, inner salt] (MTS) and phenazine methosulfate (PMS) solution at 2 mg/mL MTS and 0.043 mg/mL PMS were added to the medium, the cells were incubated for two hours at 37° C., and absorbance was measured at 490 nm. […] Neutral red was added to the media at a final concentration of 40 μg/mL. Cells were washed with PBS and incubated with neutral red medium for two hours at 37° C. The neutral red medium was removed and the cells were washed with PBS. […] Lactate dehydrogenase (LDH) release was measured using the LDH-cytotoxicity colorimetric assay kit (BioVision). Cells were lysed with 1% Triton-X to provide the high control and DMSO vehicle treatment was the low control. Supernatants were collected and transferred to a fresh 96 well plate, and LDH reaction mixture containing the catalyst and dye solution was added. The reaction was incubated for 15-20 minutes at room temperature in a dark box and absorbance was measured at 490 nm. Percent cytotoxicity was calculated as [(test sample−low control)/([…])]×100.

[8] = system: HepDES19 cells; assay: MTS cytotoxicity assay (CellTiter 96); conditions: CC50 by MTS assay over EC50
Method: as §1

[9] = Neutral red (NR) cytotoxicity assay; format: cell-based; conditions: human, HepDES19 cells, read-out: Toxicity in HepDES19, NR (CC50)
Method: (§2) To further evaluate potential cytotoxicity of these hits, the effect of the compounds was determined for the uptake of neutral red (NR) by the lysosomes and lactate dehydrogenase (LDH) release into the supernatant due to cell membrane permeability. […] Overall, the TI values in Table 3 and FIG. 4 indicate that cytotoxicity was not the cause of antiviral efficacy, although it may have contributed to the apparent efficacy for #84, 85, 90, and 91, which all have TI values below 5.

[10] = Lactate dehydrogenase (LDH) release cytotoxicity assay; format: cell-based; conditions: human, HepDES19 cells, read-out: Toxicity in HepDES19, LDH (CC50)
Method: as §2

[11] = molecular target: T3, HBV polymerase (Hepatitis B virus genotype D subtype ayw, UniProt P03156); assay: Endogenous polymerase reaction (EPR) in isolated HBV capsids; format: biochemical; conditions: ddTTP 5.7 μM; for effect on 32P incorporation in EPR: inhibitors at 4× EC50, #138 and #211 at 30 μM
T3 construct: expressed in transfected cells; host or cells: HepDES19 (HepG2 with a stably transfected HBV genotype D genome)
Source text: Anti-RNaseH activity is implied from their preferential suppression of the plus-polarity DNA strand (FIG. 4), but strand-preferential inhibition could also result from inhibiting the polymerase also. This is because positive-polarity DNA synthesis can be suppressed both directly by inhibiting the RNaseH enzyme and indirectly by reducing the amount of negative-polarity DNA strand that templates the positive-polarity strand, whereas minus-polarity DNA synthesis can only be suppressed by chain termination. To determine if the efficacy of these compounds was due to inhibition of the HBV polymerase, capsids isolated from HepDES19 cells were tested in the endogenous polymerase reaction (EPR) to measure DNA chain elongation by the HBV polymerase along the HBV nucleic acids within the capsids. Isolated HBV capsids were supplied with dATP, dTTP, dGTP, and [α^32P]dCTP in the presence of inhibitors at 4× their EC50 values; negative control compounds #138 and #211 were tested at 30 μM. 1% DMSO was used as a vehicle control, and ddTTP (5.7 μM) was the positive control polymerase inhibitor. Samples were incubated at 37° C. for 7 hours to permit DNA chain elongation by the encapsidated HBV polymerase. Nucleic acids were purified, resolved on a 0.8% agarose gel and detected by autoradiography. DNAs from HBV capsids treated with the compounds incorporated ^32P similarly to DMSO control (FIG. 5).
HBV cores were harvested from HepDES19 cells grown in the absence of tetracycline for 20 days using polyethylene glycol 8000 precipitation (Guo et al., 2003). Cells were rinsed in PBS and lysed in 1 mL core lysis buffer with 2 μL of protease inhibitor cocktail (Sigma) at room temperature for 10 minutes. Cell lysates were collected and 10 mM CaCl2) was added. The lysate was centrifuged for 5 minutes at 21,000 g, the supernatant was incubated with 150 U of micrococcal nuclease at 37° C. for 60 minutes, and then 27 mM EDTA was added to stop the reaction. 333 μL of 26% PEG8000 was added to precipitate core particles and incubated at 4° C. for 6 hours. The samples were centrifuged at 21,000 g for 20 minutes at 4° C. The supernatant was removed and the pellet was resuspended in 250 μL of 10 mM Tris buffer pH 7.5. Cores were stored at −80° C.
The endogenous polymerase reaction was done using a modified procedure from (Nguyen et al., 2007). […] These nucleic acids were dissolved in tris-EDTA buffer, resolved on a 0.8% agarose gel, transferred to a HyBondN membrane, and detected by autoradiography. Band intensities for each experiment were quantified using Image J and percent inhibition was calculated relative to the DMSO-treated reactions. Statistical significance of variation in band intensities was evaluated using a one-way ANOVA with a Dunnett post hoc analysis, with p=0.05 indicating significance.

[12] = HepDES19, read-out: HBV replication inhibition (EC50, μm)

T2 sequence (P03156 671-832): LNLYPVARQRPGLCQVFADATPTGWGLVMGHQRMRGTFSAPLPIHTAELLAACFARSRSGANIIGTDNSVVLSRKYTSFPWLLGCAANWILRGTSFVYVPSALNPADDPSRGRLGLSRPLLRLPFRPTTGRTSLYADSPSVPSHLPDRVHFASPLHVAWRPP
T3 sequence (P03156 whole entry): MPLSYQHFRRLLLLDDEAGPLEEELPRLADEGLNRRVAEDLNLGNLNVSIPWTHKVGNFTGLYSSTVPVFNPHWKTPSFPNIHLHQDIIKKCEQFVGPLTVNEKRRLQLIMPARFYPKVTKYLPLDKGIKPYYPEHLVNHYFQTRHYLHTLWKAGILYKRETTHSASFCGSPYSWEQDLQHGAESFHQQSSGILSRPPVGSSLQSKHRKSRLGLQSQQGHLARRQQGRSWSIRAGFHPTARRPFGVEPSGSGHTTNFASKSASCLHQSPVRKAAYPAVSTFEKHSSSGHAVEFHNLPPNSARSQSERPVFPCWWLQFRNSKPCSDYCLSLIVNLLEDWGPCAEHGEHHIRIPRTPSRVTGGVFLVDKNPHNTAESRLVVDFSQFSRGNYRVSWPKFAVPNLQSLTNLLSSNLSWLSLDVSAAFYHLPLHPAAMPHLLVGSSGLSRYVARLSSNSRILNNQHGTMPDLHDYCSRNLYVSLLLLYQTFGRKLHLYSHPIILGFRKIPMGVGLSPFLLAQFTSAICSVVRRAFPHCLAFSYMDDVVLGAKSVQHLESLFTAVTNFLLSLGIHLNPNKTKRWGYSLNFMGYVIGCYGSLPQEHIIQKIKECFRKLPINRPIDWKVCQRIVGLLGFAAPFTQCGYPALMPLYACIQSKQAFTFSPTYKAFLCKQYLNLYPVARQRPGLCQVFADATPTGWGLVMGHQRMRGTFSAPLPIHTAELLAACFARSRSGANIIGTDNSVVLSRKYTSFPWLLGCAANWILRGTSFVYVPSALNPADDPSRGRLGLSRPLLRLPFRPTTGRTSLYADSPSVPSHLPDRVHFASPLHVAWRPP

Row | Compound | IC50 [1] [µM] | EC50 [2, 12] [µM] | CC50 [3] [µM] | log reduction at 5 µM [4] | HBV RNaseH ([5]; Table 1, qualitative inhibition in biochemical assay) | Inhibition of HBV RNaseH, Oligonucleotide directed cleavage assay [5] | inhibition of RNA cleavage by HBV RNaseH ([5]; compounds at 100, 60 and 20 μM) | inhibition in the molecular beacon assay [6] | Inhibition of HBV RNaseH, Molecular Beacon cleavage assay [6] | Human RNaseH1 ([1]; Table 1, qualitative inhibition) | EC50 ([2]; Table 2, HepDES19 cells, read-out: EC50) [µM] | CC50 at 72 h [7] [µM] | TI (therapeutic index, CC50(MTS)/EC50) [8] | CC50 at 72 h [9] [µM] | CC50 at 72 h [10] [µM] | HBV replication inhibition / activity ([2]; HepDES19 cells) | HBV replication inhibition (qualitative) ([2]; Table 3, qualitative screen at 20 μM) | effect on 32P incorporation in EPR [11] | reduction of DNA elongation in EPR ([11]; 7 hours, 37° C.) [%]
1 | CCN(CC)C(=O)C1C(=O)N(O)C(=O)c2ccccc21 (stereo not shown) [Compound 83] | 3.4 | 2.3 ± 1.6 | > 100 | < 1 | +/− | − (No inhibition detected at 100 μM) | negative | inhibited | + (Dose-dependent inhibition at ≤500 μM) |  |  |  |  |  |  |  |  |  | 
2 | O=C(NCc1ccc(F)cc1)C1C(=O)N(O)C(=O)c2cc(Cl)ccc21 (stereo not shown) [Compound 87] |  | 4.5 ± 3.7 | 37 | < 1 |  | − (No inhibition detected at 100 μM) |  |  | − (No inhibition detected at 500 μM) | +++ (detectable inhibition at 10 μM) | 1.6 | 37 ± 17 | 8.2 | 24 ± 1 | 52 ± 15 |  |  |  | 
3 | O=C(Nc1ccc(F)cc1)C1C(=O)N(O)C(=O)c2ccccc21 (stereo not shown) [Compound 91] | 8.7 | 4.6 ± 1 |  | < 1 |  | − (No inhibition detected at 100 μM) |  |  | − (No inhibition detected at 500 μM) |  |  |  |  |  |  |  |  |  | 
4 | CC1CC(=O)N(O)C(COc2ccc(Oc3ccc(Cl)cc3)cc2)C1 (stereo not shown) [Compound 211, Rilopirox, reference compound] |  |  |  | < 1 |  | − (No inhibition detected at 100 μM) |  | had no effect on the rate of substrate degradation | − (No inhibition detected at 500 μM) |  |  |  |  |  |  | inactive | − (No inhibition detected at 20 μM) | None of the HBV inhibitors or the two negative control compounds (#138 and 211) significantly altered incorporation | 
5 | Cc1cn([C@H]2CC[C@@H](COP(=O)(O)OP(=O)(O)OP(=O)(O)O)O2)c(=O)[nH]c1=O [ddTTP] |  |  |  |  |  |  |  |  |  |  |  |  |  |  |  |  |  | strongly inhibited | ~90
